Measured values published in patent publication US20220047475A1, “COSMETIC USE OF A SHORT CHAIN FATTY ACID (SCFA) FOR PREVENTING AND/OR TREATING DRY SKIN AND/OR AGED SKIN” (L'OREAL, priority 2018, published 2022).

Experiments:
sebocytes [1] = experiment: Quantification of secreted triglycerides (TGs) in sebocyte supernatants; format: cell-based; conditions: for % of excreted TGs (compared to control) / FC (compared to control) of excreted TGs: 5 mmol.L^−1, 24 h
Method: Cell culture. Vials containing 3T3 mitomycine treated cells stored in 20% DMSO (Dimethylsulf oxide, Sigma Ref. D2650) in liquid nitrogen have been thawed in a water bath at 37° C. and directly washed with prewarmed G7F culture media (Table 1). 3T3m cells were plated at 40.10^3 cells·cm^2 in a 175 cm^2 flask (Thermoscientific Ref. 159910) and incubated 2 hours at 37° C., 5% CO2. Sebocytes were obtained from primary cell line and stored in 10% DMSO in liquid nitrogen. Vials containing sebocytes were thawed in a water bath at 37° C. and directly washed with prewarmed G7F culture media. Sebocytes were plated at 2600 cells·cm^2 in a 175 cm^2 flask containing attached 3T3m cells and incubated (37° C., 5% CO2) to reach 70-80% confluence. After 5 days, cells were harvested using trypsin (Gibco Ref. 25300) and transferred in 96 well plates (10×10^3 cells per well, Greiner Bio-one Ref. 655956) and incubated (37° C., 5% CO2).
Cell treatment. After 24 hours, cell media was replaced by modified cell media (G7F w/o hydrocortisone and w/o antibiotic-antimycotic) supplemented with: modified cell media (control), sodium acetate (CH3COONa, Sigma Ref. 32319), sodium propionate (CH3CH2COONa, Sigma Ref. P1880), sodium butyrate (CH3(CH2)2COONa Sigma Ref. 303410), valeric acid (CH3(CH2)3COOH, Sigma Ref. 75054). For valeric acid, the pH in modified cell media was neutralized with NaOH (Sodium hydroxide, Sigma 283060). Palmitic acid (C16:0, Cayman Ref. 10006627) and linoleic acid (C18:2 cis 9.12, Sigma Ref. L1376) were both dissolved in pure ethanol (Merck Ref. 1.00983) for a final concentration per well of 60 μmar′. For these treatments, modified cell media supplemented with pure ethanol was used as controls. Supernatants (25%) sampled in exponential and stationary phases were neutralized with NaOH and were controlled with modified cell media supplemented at 25% with pure bacterial culture media. All conditions were repeated 8 times (n=8) for SOFA experiments and 24 times (n=24) for supernatants assays. […]
Triglycerides quantification. Assays have been realized using Triglycerides Assays Kit—Quantification (Abcam, ref. Ab65336) following manufacturer's instructions. Each supernatant of the 8 replicates have been sampled (50 μl) and analyzed following the colorimetric detection method of the kit (OD 570 nm) using a plate reader Infinite 200PRO (Tecan).
Holocrine secretion is the final step of sebogenic process wherein the mature cells burst to release the lipid contents. Promotion of holocrine secretion by SOFA was based on observations and interpretations of a lower number of cells in association with an enlargement of nuclear area.

sebocytes [2] = experiment: High content screening (HCS) imaging of sebocytes: lipid droplets (BODIPY) and nuclei (Hoechst); format: cell-based; conditions: for Nuclear count / Size of nucleus: 5 mmol.L^−1, mean ± SD, holocrine secretion
Method: Cell culture. […] D2650) in liquid nitrogen have been thawed in a water bath at 37° C. and directly washed with prewarmed […] culture media (Table 1). 3T3m cells were plated at 40.10^3 cells·cm^2 in a 175 cm^2 flask (Thermoscientific Ref. 159910) and incubated 2 hours at 37° C., 5% CO2. […] Vials containing sebocytes were thawed in a water bath at 37° C. and directly washed with prewarmed […] culture media. Sebocytes were plated at 2600 cells·cm^2 in a 175 cm^2 flask containing attached 3T3m cells and incubated (37° C., 5% CO2) to reach 70-80% confluence. After 5 days, cells were harvested using trypsin (Gibco Ref. 25300) and transferred in 96 well plates (10×10^3 cells per well, Greiner Bio-one Ref. 655956) and incubated (37° C., 5% CO2). Cell treatment. […] For valeric acid, the pH in modified cell media was neutralized with NaOH (Sodium hydroxide, Sigma 283060). […]) were both dissolved in pure ethanol (Merck Ref. 1.00983) for a final concentration per well of 60 μmar'. For these treatments, modified cell media supplemented with pure ethanol was used as controls. Supernatants (25%) sampled in exponential and stationary phases were neutralized with NaOH and were controlled with modified cell media supplemented at 25% with pure bacterial culture media. All conditions were repeated 8 times (n=8) for SOFA experiments and 24 times (n=24) for supernatants assays. Microplates were incubated 48 hours (37° C., 5% CO2) and directly sampled and/or stained and analyzed. Cell staining. […] Lipid droplets were stained with BODIPY (Invitrogen Ref. […]) diluted in DPBS solution supplemented with delipidated BSA (Bovin Serum Albumin, Sigma Ref. A7906). Nuclei were stained with Hoechst (Invitrogen, Ref. H3570) diluted in DPBS solution. High content imaging, images analysis and statistics. […] Images were analyzed using the MetaXpress image based module Transfluor (Molecular Devices). Results were exported into GraphPad Prism (version 7.01) to determine statistical significance using One-way ANOVA and expressed on bar graph as mean±SD or on box plot±min and max. *: […] Sebocytes were seeded in 96 well plates, followed by treatment with SOFA and/or LCFAs with at least 8 replicate wells (1 column) for each condition.

[3] = sebocytes, 2.5, 5, 10 and 15 mmol·l^−1

With `CCCCC(=O)O` [valerate, valeric acid] the “% of TGs excreted” value (sebocytes [1]; 15 mmol·l−1, 24 h) was “+100%”, the “FC of TGs excreted” value (sebocytes [1]; 15 mmol·l−1, 24 h) was roughly 2 and the “nuclear count per well” value (sebocytes [2]; [3]) was “decrease in the nuclear count per well”.

In the case of `CCC(=O)[O-].[Na+]` [Proprionate, sodium propionate], the “% of excreted TGs (compared to control)” value (sebocytes [1]; listed as P5) is reported as “+20%”, the “FC (compared to control) of excreted TGs” value (sebocytes [1]; listed as P5) is reported as roughly 1.2 and the “nuclear count per well” value (sebocytes [2]; [3]) is reported as “decrease in the nuclear count per well”. The “size of LDs compared to controls” value (sebocytes [2]; [3]) was “LDs increased in size as the concentration of propionate increased” and the “number of LDs per cell” value (sebocytes [2]; sebocytes, pure propionate 5 mmol·l^−1) was “about 12 LDs/cell”.

With `CC(=O)[O-].[Na+]` [Acetate, sodium acetate, reference compound] the “% of excreted TGs (compared to control)” value (sebocytes [1]) was −10% =, the “FC (compared to control) of excreted TGs” value (sebocytes [1]) was “FC = 0.90, =” and the “de novo lipid induction compared to the control” value (sebocytes [2]; sebocytes, 5 mmol.L^−1) was “significant”. The Nuclear count (sebocytes [2]; sebocytes) was 18574 ± 2148 =, the Size of nucleus (sebocytes [2]; sebocytes) was 215 ± 5 = and the Nuclear count (sebocytes [2]; sebocytes, listed as acetate) was “no effect”. For the same compound, the Size of nucleus (sebocytes [2]; sebocytes, listed as acetate) was “no effect”.

With `CCCC(=O)[O-].[Na+]` [butyrate, sodium butyrate] the “FC of TGs excreted” value (sebocytes [1]; 15 mmol·l−1, 24 h) was “FC of TGs in B15>FC of TGs in B5” and the “nuclear count per well” value (sebocytes [2]; [3]) was “decrease in the nuclear count per well”.
